From US20200323843A1 (IRR, Inc., priority 2010, published 2020)
Entries after “also recorded” stand apart in the source; their conditions may differ. Read-outs that look alike come from different tables or passages of the source.

Key:
[1] = cited from earlier work
[2] = cited from earlier work; remark: listed apart in the source
influenza [3] = conditions: patients with influenza; cited from earlier work
influenza [4] = conditions: 10 days; levocetirizine 5 mg po and/or montelukast 10 mg po
From the text: A cohort of 20 patients between the ages of 15-30 years of age (and no other co-morbid disease processes), presenting with classic symptoms of influenza: headache, fever, dry cough and extreme fatigue, are identified and divided into four treatment groups. The first group (CONTROL) receives two placebo tablet(s) each administered together at the same time each day for a period of 10 days.
Laboratory data shall consist of a complete blood count, comprehensive metabolic panel, C-reactive protein, T and B cell lymphocyte panel, chest x-ray, and viral and aerobic cultures of the airway. Vital signs will be logged at the initial visit and the patient's fever profile tracked over the interim. Onset, duration and intensity of symptoms (headache, fever, cough, fatigue) will be logged in addition to the time to resolution of symptoms (time zero—first dose of medication(s)). Second endpoint data will include the time it takes to return to full activity, work/school.

[5] = system: histamine induced wheal and flare; conditions: cited from earlier work
human rhinovirus = conditions: airway epithelial cells; cited from earlier work
[6] = system: eosinophil migration, IL-4, IL-6, IL-8; conditions: cited from earlier work
[7] = cited from earlier work; remark: listed apart in the source

## CC(C)(O)c1ccccc1CC[C@@H](SCC1(CC(=O)O)CC1)c1cccc(/C=C/c2ccc3ccc(Cl)cc3n2)c1 [Montelukast, montelukast]
[1]; IV 7 mg vs approved 10 mg oral tablet
  plasma concentration area under the curve profile, IV vs oral tablet: comparable
[1]; in vivo, po
  drug interactions with warfarin, theophylline, digoxin, terfenadine, oral contraceptives, or prednisone: no drug interactions
[1]; in vivo
  absorption: rapidly absorbed
  linear pharmacokinetics, up to dose: ≤ 50 mg
  time to peak plasma concentration: 3 to 4 h
[1]; standard meal
  oral bioavailability and Cmax, effect of a standard meal: not affected
[2]; adult patients, 22 weeks
  dose administered without clinically important adverse experiences: up to 200 mg/day
[2]; short-term studies, approximately one week
  dose administered without clinically important adverse experiences: up to 900 mg/day

## CCOC(=O)C1=C[C@@H](OC(CC)CC)[C@H](NC(C)=O)[C@@H](N)C1 [oseltamivir]
Influenza [3]
  influenza related lower respiratory tract infections/complications: has not been shown to decrease; also recorded: did not appear to reduce

## O=C(O)COCCN1CCN([C@H](c2ccccc2)c2ccc(Cl)cc2)CC1 [Levocetirizine, levocetirizine]
Influenza [4]
  influenza symptoms: reduced fever profile and overall feeling of fatigue, without significant foreshortening of the disease process
[5]; histamine induced wheal and flare data
  potency among the five modern generation antihistamines: most potent
[5]; levocetirizine 5 mg per day vs fexofenadine 180 mg per day
  effectiveness compared with fexofenadine: more effective
Human rhinovirus
  rhinovirus-induced ICAM-1 and cytokine expression and viral replication: inhibits
[6]
  eosinophil migration: decrease
  inflammatory mediators, IL-4, IL-6, and IL-8: decrease
[1]; in vivo
  Steady-state level: 40 h
  time to steady state level: 40 h
[7]; at higher doses
  principal side effect: Sedation
[7]; humans
  dose that can be safely administered: up to 30 mg/day
